According to US7553858B2, “Combination of flupirtine and tramadol” (priority 2003, dated 2009):
Like-named read-outs stand apart in the source and are kept apart here. Marks after values point to notes of the source that are not given here.

Assays:
skeletal muscle tone = assay: Skeletal muscle tone in conscious rats; assay type: in vivo, Sprague-Dawley rats
Method: The experimental set-up has been described in all details in a former publication (Nickel et al. Arzn. Forsch./Drug Res. 1997; 47; 1081-6). Briefly, the measurement of skeletal muscle tone was done by recording successively the resistance of flexor and extensor muscles which counteracted the forced straightening and bending of the foot in the ankle joint. Pressure changes induced by the movements of the foot were continuously registered. Signals were analyzed on a personal computer. A corresponding computer program calculated the resistance values of flexors and extensors of the foot over 10 min recording periods.
Male Sprague-Dawley rats weighing 200-220 g were used.
Drugs (tramadol hydrochloride, flupirtine maleate) were prepared in physiological saline daily and given intraperitoneally.
The statistical analysis of differences between calculated and measured effects was carried out by the one-way ANOVA. Asterisks (*) indicate the significance level p<0.01.

[1] = system: seizures induced by subconvulsive pentetrazol doses; assay: Submaximal pentetrazol-induced seizures in mice; details: for Intensity (scored) of seizures / Number of animals with seizures: n = 10
Method: Male mice weighing 22-24 g were used. Animals housed in groups of 4 at standard conditions (temperature 22° C., humidity 40-60%) with food and water freely available. Lights were on from 06.00 a.m. to 06.00 p.m. The experiments were approved by the Animal Health Committee of the University which is responsible for the care and proper use of experimental animals.
Seizures were induced by intraperitoneal administration of pentetrazol at the subconvulsive dose of 30 mg/kg. The latency of the first seizure reaction, the seizure intensity and the number of animals with seizures were calculated for the first 10 min after i.p. injection of pentetrazol. Tramadol (hydrochloride) and flupirtine (maleate) were given intraperitoneally (15 min before pentetrazol administration). Drugs were prepared daily in 0.9% saline.

[2] = system: acetylcholine-induced writhing; assay: Acetylcholine-induced writhing in mice; assay type: in vivo; details: Mus musculus
Method: Male mice weighing 22-24 g were maintained in groups of 4 at standard conditions (temperature 22±1° C., humidity: 40-50%, dark-light rhythm: 12/12 h) with food and water freely available.
Abdominal contractions (writhings) were induced by intraperitoneal (i.p.) injection of acetylcholine (ACh) (chloride, 5.5. mg/kg) in a volume of 10 ml/kg. Immediately thereafter, mice were placed in a plastic cage and the number of abdominal contractions (writhes) was counted for 10 min. The total number of abdominal contractions per animal and number of animals with contractions were calculated.
Drugs were prepared daily. All compounds were given orally. Tramadol hydrochloride and flupirtine maleate were administered 30 min before acetylcholine injection.
ED50 values were estimated either by the ratio of animals protected from writhings to the number of animals in groups or by the mean number of writhes in each group of animals. The values were calculated by using linear regression. The statistical analysis of differences between calculated and measured effects was carried out by the Kruscall-Wallis test. Asterisks (*) indicate the significance level p<0.05.

tramadol-induced emesis = assay: Emetic response in conscious mongrel dogs; assay type: in vivo; details: Tramadol 14 mg/kg i.v., first 60 min, n = 5
Method: Mongrel dogs of both sexes weighing up to 15 kg were used. They were deprived of food overnight but allowed water ad libitum. Test compounds were administered to conscious animals by a slow infusion via the saphenous vein. Emetic responses (retches, strong salivation vomits with output) were monitored 60 min following drug administration (Borison and Wang, 1953). All dogs received 14 mg/kg tramadol i.v. repeatedly with an interval of one week. Positive responder dogs were selected and used in further experiments.

[3] = Flupirtine 10 mg/kg i.p., pentetrazol 30 mg/kg i.p.
[4] = Flupirtine 20 mg/kg i.p., pentetrazol 30 mg/kg i.p.
[5] = Tramadol 20 mg/kg i.p., 15 min before pentetrazol 30 mg/kg i.p.
[6] = Tramadol 40 mg/kg i.p., pentetrazol 30 mg/kg i.p.

SMILES | tramadol-induced skeletal muscle rigidity (in words) (skeletal muscle tone; Flupirtine 5-10 mg/kg i.p.) | Intensity (scored) of seizures [1, 3] | Number of animals with seizures [1, 3] | Intensity (scored) of seizures [1, 4] | Number of animals with seizures [1, 4] | proconvulsive activity of tramadol, in the combination (in words) ([1]; mice, i.p., flupirtine with tramadol) | ED50 ([2]; mice, oral, 30 min before ACh 5.5 mg/kg i.p., read-out: oral ED50-values calculated on the basis of animals protected from writhings) [mg/kg] | ED50 ([2]; mice, oral, 30 min before ACh 5.5 mg/kg i.p., read-out: oral ED50-values calculated on the basis of reduction of number of writhings) [mg/kg] | Emetic response, % of dogs (tramadol-induced emesis) [%] | Changes in muscle tonus (in % compared to placebo) (skeletal muscle tone; Tramadol 20 mg/kg i.p.) | Changes in muscle tonus (in % compared to placebo) (skeletal muscle tone; Tramadol 40 mg/kg i.p.) | Intensity (scored) of seizures [1, 5] | Number of animals with seizures [1, 5] | Intensity (scored) of seizures [1, 6] | Number of animals with seizures [1, 6] | effect on acute seizures induced by subconvulsive doses of pentetrazol (in words) ([1]; mice, i.p.) | ED50 ([2]; read-out: oral ED50-values calculated on the basis of animals protected from writhings) [mg/kg] | ED50 ([2]; read-out: oral ED50-values calculated on the basis of reduction of number of writhings) [mg/kg]
CCOC(=O)Nc1ccc(NCc2ccc(F)cc2)nc1N [Flupirtine] | completely abolished | 0.20 | 2 | 0.10 | 1 | almost completely attenuated | 27.2 | 21 |  |  |  |  |  |  |  |  |  | 
COc1cccc([C@@]2(O)CCCC[C@H]2CN(C)C)c1 (racemic) [Tramadol, trans-(+/−)-2-[(Dimethylamino)methyl]-1-(3-methoxyphenyl)cyclohexanol] |  |  |  |  |  |  |  |  | 100 | +12% | +47%* | 1.70* | 8* | 3.00* | 10* | proconvulsive effects | 4.87 | 4.14
